Measurements reported in patent US9394260B2, “Pyrimidinone carboxamide inhibitors of endothelial lipase” (BRISTOL-MYERS SQUIBB COMPANY, priority 2012, dated 2016).

The compounds below were run against T1, endothelial lipase (EL) (Homo sapiens, UniProt Q9Y5X9) (assay: Endothelial lipase (EL) enzymatic assay with fluorescent substrate A10070 in DMPG vesicles). Conditions: conditioned media from HT-1080 cells overexpressing endogenous EL, 20 min preincubation at 37° C.
T1 construct: transformed by RAGE technology (Athersys) to overexpress endogenous EL; endogenous in cells; conditioned medium used as the enzyme source
T1 sequence (Q9Y5X9 21-500): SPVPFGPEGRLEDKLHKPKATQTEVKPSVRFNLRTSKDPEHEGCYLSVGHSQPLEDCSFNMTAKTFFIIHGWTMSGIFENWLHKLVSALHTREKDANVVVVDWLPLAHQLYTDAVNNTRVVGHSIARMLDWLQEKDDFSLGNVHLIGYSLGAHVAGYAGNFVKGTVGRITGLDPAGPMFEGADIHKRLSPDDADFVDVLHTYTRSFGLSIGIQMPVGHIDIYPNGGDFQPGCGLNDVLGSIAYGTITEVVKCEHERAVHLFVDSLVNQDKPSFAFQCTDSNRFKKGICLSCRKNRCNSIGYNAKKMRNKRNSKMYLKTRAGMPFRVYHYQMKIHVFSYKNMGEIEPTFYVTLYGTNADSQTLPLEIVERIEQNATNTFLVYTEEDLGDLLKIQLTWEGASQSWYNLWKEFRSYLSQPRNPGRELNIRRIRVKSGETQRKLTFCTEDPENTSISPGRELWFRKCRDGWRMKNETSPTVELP
Type: biochemical
Description: Endothelial lipase activity was measured using a fluorescent substrate, A10070, (Invitrogen, CA) doped into an artificial vesicle containing DMPG (Avanti Polar Lipids) as the excipient. Vesicles were prepared by combining 285 μL of 1 mM DMPG in a 1:1 mixture of MeOH and CHCl3 with 15 μL of 1 mM A10070 in a 1:1 mixture of MeOH and CHCl3. The mixture was dried under nitrogen and resuspended in 150 μL of 50 mM HEPES pH 8.0 buffer containing 100 mM NaCl and 0.2 mM EDTA. The sample was allowed to sit at rt for 15 min and then was sonicated 3×4 mins on ice with a Branson Sonicator using duty cycle 1. This preparation provides vesicles with a mole fraction of 0.05 for the FRET substrate.
The enzymatic assay was measured using white, opaque 96-well half area plates. Each well contained 60 μL of assay buffer (50 mM HEPES pH 8.0, 50 mM NaCl and 1 mM CaCl2) and 2 ul of a DMSO solution containing compound of interest. Conditioned media obtained from HT-1080 cells, which were transformed by RAGE technology (Athersys) to overexpress endogenous EL, was added and the reaction was allowed to incubate for 20 min at 37° C. with gentle agitation. The reaction was started by the addition of 20 μL of a 1:4 dilution of vesicles. The final total reaction volume was 100 μL. The reaction rates were measured on a Gemini plate reader with an excitation wavelength of 488 nm and a emission of 530 nm. Readings were taken every 20 seconds for 10 min with agitation between each reading. The slope of the linear portion of the readout was used to calculate the rate of the reaction.
The exemplified examples disclosed in the present invention were tested in the EL assay described above and found having EL inhibitory activity. A range of EL IC50 values of ≦10 μM (10000 nM) was observed.
With `C[C@@H](NC(=O)c1[nH]c(=O)[nH]c(=O)c1N)c1cccc(-c2cnn(Cc3nc4ccccc4s3)c2)c1` [Example 160, (R)-5-amino-N-(1-(3-(1-(benzo[d]thiazol-2-ylmethyl)-1H-pyrazol-4-yl)phenyl)ethyl)-2,6-dioxo-1,2,3,6-tetra-hydropyrimidine-4-carboxamide] the IC50 was 369 nM.
`C[C@@H](NC(=O)c1[nH]c(=O)[nH]c(=O)c1N)c1cccc(-c2cnn(CC3CCN(C(=O)OCc4ccccc4)CC3)c2)c1` [Example 161, (R)-benzyl 4-((4-(3-(1-(5-amino-2,6-dioxo-1,2,3,6-tetra-hydropyrimidine-4-carboxamido)ethyl)phenyl)-1H-pyrazol-1-yl)methyl) piperidine-1-carboxylate] showed an IC50 of 441 nM.
In the case of `COc1ccc(CNc2c(C(=O)N[C@H](C)CCc3ccc(Cl)c(Cl)c3)[nH]c(=O)n(C)c2=O)cc1` [Example 171, (R)—N-(4-(3,4-Dichlorophenyl)butan-2-yl)-5-(4-methoxybenzylamino)-1-methyl-2,6-dioxo-1,2,3,6-tetrahydropyrimidine-4-carboxamide], the IC50 is reported as 358 nM.
Work on `CCCOc1cc(F)ccc1CNC(=O)c1c(O)c(=O)n(C)c(=O)n1CCC` [Example 176, N-(4-fluoro-2-propoxybenzyl)-5-hydroxy-1-methyl-2,6-dioxo-3-propyl-1,2,3,6-tetra-hydropyrimidine-4-carboxamide] yielded an IC50 of 4640 nM.
Work on `C[C@@H](NC(=O)c1[nH]c(=O)[nH]c(=O)c1O)c1cccc(-c2cnn(Cc3ccccc3)c2)c1` [Example 181, (R)-N-(1-(3-(1-benzyl-1H-pyrazol-4-yl)phenyl)ethyl)-5-hydroxy-2,6-dioxo-1,2,3,6-tetra-hydropyrimidine-4-carboxamide] yielded an IC50 of 10 nM.
For `C[C@@H](NC(=O)c1[nH]c(=O)[nH]c(=O)c1O)c1cccc(OCc2ccccc2)c1` [Example 182, (R)-N-(1-(3-(benzyloxy)phenyl)ethyl)-5-hydroxy-2,6-dioxo-1,2,3,6-tetrahydro-pyrimidine-4-carboxamide], the IC50 was 10 nM.
